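The compound was tested at five concentrations on cells cultured in 96-well plates, with a 48-hour exposure period. Abbreviation: GI50, concentration required for 50% inhibition of growth. The concentration for full growth arrest is given as TGI.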
Legend:
Assay in all cases: NCI tumour cell line growth inhibition, 48 h
786-0 renal = tested on: 786-0 renal
A498 renal = tested on: A498 renal
A549 NSCLC = tested on: A549 NSCLC
ACHN renal = tested on: ACHN renal
BT-549 breast = tested on: BT-549 breast
CAKI-1 renal = tested on: CAKI-1 renal
CCRF-CEM leukemia = tested on: CCRF-CEM leukemia
COLO 205 colon = tested on: COLO 205 colon
DU-145 prostate = tested on: DU-145 prostate
EKVX NSCLC = tested on: EKVX NSCLC
HCC-2998 colon = tested on: HCC-2998 colon
HCT-116 colon = tested on: HCT-116 colon
HCT-15 colon = tested on: HCT-15 colon
HL-60(TB) leukemia = tested on: HL-60(TB) leukemia
HOP-62 NSCLC = tested on: HOP-62 NSCLC
HOP-92 NSCLC = tested on: HOP-92 NSCLC
HS 578T breast = tested on: HS 578T breast
HT29 colon = tested on: HT29 colon
IGROV1 ovarian = tested on: IGROV1 ovarian
K-562 leukemia = tested on: K-562 leukemia
KM12 colon = tested on: KM12 colon
LOX IMVI melanoma = tested on: LOX IMVI melanoma
M14 melanoma = tested on: M14 melanoma
MALME-3M melanoma = tested on: MALME-3M melanoma
MCF7 breast = tested on: MCF7 breast
MDA-MB-231 breast = tested on: MDA-MB-231 breast
MDA-MB-435 = tested on: MDA-MB-435
MOLT-4 leukemia = tested on: MOLT-4 leukemia
NCI-H226 lung = tested on: NCI-H226 lung
NCI-H23 lung = tested on: NCI-H23 lung
NCI-H460 lung = tested on: NCI-H460 lung
NCI-H522 lung = tested on: NCI-H522 lung
NCI/ADR-RES ovarian = tested on: NCI/ADR-RES ovarian
OVCAR-3 ovarian = tested on: OVCAR-3 ovarian
OVCAR-4 ovarian = tested on: OVCAR-4 ovarian
OVCAR-5 ovarian = tested on: OVCAR-5 ovarian
OVCAR-8 ovarian = tested on: OVCAR-8 ovarian
PC-3 prostate = tested on: PC-3 prostate
RPMI-8226 leukemia = tested on: RPMI-8226 leukemia
RXF 393 renal = tested on: RXF 393 renal
SF-268 CNS = tested on: SF-268 CNS
SF-295 CNS = tested on: SF-295 CNS
SF-539 CNS = tested on: SF-539 CNS
SK-MEL-28 melanoma = tested on: SK-MEL-28 melanoma
SK-MEL-5 melanoma = tested on: SK-MEL-5 melanoma
SK-OV-3 ovarian = tested on: SK-OV-3 ovarian
SN12C renal = tested on: SN12C renal
SNB-19 CNS = tested on: SNB-19 CNS
SNB-75 CNS = tested on: SNB-75 CNS
SW-620 colon = tested on: SW-620 colon
T-47D breast = tested on: T-47D breast
TK-10 renal = tested on: TK-10 renal
U251 CNS = tested on: U251 CNS
UACC-257 melanoma = tested on: UACC-257 melanoma
UACC-62 melanoma = tested on: UACC-62 melanoma
UO-31 renal = tested on: UO-31 renal

CN1C(=O)C23CC4(C56CC78SSC(CO)(C(=O)N7C5Nc5ccccc56)N(C)C8=O)c5ccccc5NC4N2C(=O)C1(CO)SS3 (configuration not stated)
GI50 (786-0 renal): 78.6 nM
TGI (786-0 renal): 172 nM
GI50 (A498 renal): 74.8 nM
TGI (A498 renal): 155 nM
GI50 (A549 NSCLC): 48 nM
TGI (A549 NSCLC): 283 nM
GI50 (ACHN renal): 71.5 nM
TGI (ACHN renal): 443 nM
GI50 (BT-549 breast): 106 nM
TGI (BT-549 breast): 347 nM
GI50 (CAKI-1 renal): 56.1 nM
TGI (CAKI-1 renal): 290 nM
GI50 (CCRF-CEM leukemia): 21.9 nM
TGI (CCRF-CEM leukemia): 3.04 µM
GI50 (COLO 205 colon): 19.5 nM
TGI (COLO 205 colon): 76 nM
GI50 (DU-145 prostate): 29.6 nM
TGI (DU-145 prostate): 195 nM
GI50 (EKVX NSCLC): 89.2 nM
TGI (EKVX NSCLC): 526 nM
GI50 (HCC-2998 colon): 46 nM
TGI (HCC-2998 colon): 132 nM
GI50 (HCT-116 colon): 32.9 nM
TGI (HCT-116 colon): 313 nM
GI50 (HCT-15 colon): 35.3 nM
TGI (HCT-15 colon): 411 nM
GI50 (HL-60(TB) leukemia): 85.3 nM
TGI (HL-60(TB) leukemia): 50 µM
GI50 (HOP-62 NSCLC): 124 nM
TGI (HOP-62 NSCLC): 368 nM
GI50 (HOP-92 NSCLC): 103 nM
TGI (HOP-92 NSCLC): 461 nM
GI50 (HS 578T breast): 52.9 nM
TGI (HS 578T breast): 191 nM
GI50 (HT29 colon): 17.6 nM
TGI (HT29 colon): 162 nM
GI50 (IGROV1 ovarian): 98.7 nM
TGI (IGROV1 ovarian): 279 nM
GI50 (K-562 leukemia): 524 nM
TGI (K-562 leukemia): 3.64 µM
GI50 (KM12 colon): 54.4 nM
TGI (KM12 colon): 220 nM
GI50 (LOX IMVI melanoma): 52.1 nM
TGI (LOX IMVI melanoma): 243 nM
GI50 (M14 melanoma): 71.7 nM
TGI (M14 melanoma): 205 nM
GI50 (MALME-3M melanoma): 17.7 nM
TGI (MALME-3M melanoma): 74.5 nM
GI50 (MCF7 breast): 14.5 nM
TGI (MCF7 breast): 122 nM
GI50 (MDA-MB-231 breast): 130 nM
TGI (MDA-MB-231 breast): 653 nM
GI50 (MDA-MB-435): 68.5 nM
TGI (MDA-MB-435): 146 nM
GI50 (MOLT-4 leukemia): 34.3 nM
TGI (MOLT-4 leukemia): 3.5 µM
GI50 (NCI-H226 lung): 130 nM
TGI (NCI-H226 lung): 359 nM
GI50 (NCI-H23 lung): < 31.5 nM
TGI (NCI-H23 lung): 76.4 nM
GI50 (NCI-H460 lung): 52.3 nM
TGI (NCI-H460 lung): 191 nM
GI50 (NCI-H522 lung): 115 nM
TGI (NCI-H522 lung): 329 nM
GI50 (NCI/ADR-RES ovarian): 48.2 nM
TGI (NCI/ADR-RES ovarian): 189 nM
GI50 (OVCAR-3 ovarian): 50.7 nM
TGI (OVCAR-3 ovarian): 218 nM
GI50 (OVCAR-4 ovarian): 57.6 nM
TGI (OVCAR-4 ovarian): 237 nM
GI50 (OVCAR-5 ovarian): 81.3 nM
TGI (OVCAR-5 ovarian): 294 nM
GI50 (OVCAR-8 ovarian): 23 nM
TGI (OVCAR-8 ovarian): 185 nM
GI50 (PC-3 prostate): 38.8 nM
TGI (PC-3 prostate): 537 nM
GI50 (RPMI-8226 leukemia): 56.3 nM
TGI (RPMI-8226 leukemia): 3.16 µM
GI50 (RXF 393 renal): 12.9 nM
TGI (RXF 393 renal): 42 nM
GI50 (SF-268 CNS): 80.7 nM
TGI (SF-268 CNS): 351 nM
GI50 (SF-295 CNS): 49.7 nM
TGI (SF-295 CNS): 135 nM
GI50 (SF-539 CNS): 29.1 nM
TGI (SF-539 CNS): 64.9 nM
GI50 (SK-MEL-28 melanoma): 23.5 nM
TGI (SK-MEL-28 melanoma): 69.5 nM
GI50 (SK-MEL-5 melanoma): 39.3 nM
TGI (SK-MEL-5 melanoma): 112 nM
GI50 (SK-OV-3 ovarian): 103 nM
TGI (SK-OV-3 ovarian): 291 nM
GI50 (SN12C renal): 124 nM
TGI (SN12C renal): 673 nM
GI50 (SNB-19 CNS): 192 nM
TGI (SNB-19 CNS): 643 nM
GI50 (SNB-75 CNS): 99.3 nM
TGI (SNB-75 CNS): 289 nM
GI50 (SW-620 colon): 37.2 nM
TGI (SW-620 colon): 167 nM
GI50 (T-47D breast): 21.3 nM
TGI (T-47D breast): 135 nM
GI50 (TK-10 renal): 119 nM
TGI (TK-10 renal): 359 nM
GI50 (U251 CNS): 46.4 nM
TGI (U251 CNS): 193 nM
GI50 (UACC-257 melanoma): 37.2 nM
TGI (UACC-257 melanoma): 113 nM
GI50 (UACC-62 melanoma): 62.2 nM
TGI (UACC-62 melanoma): 153 nM
GI50 (UO-31 renal): 111 nM
TGI (UO-31 renal): 342 nM

Source: PubChem BioAssay (NCI)
